Reference: US20240108598A1, “Danegaptide for Use in the Treatment or Prevention of a Kidney Disease” (CIANA THERAPEUTICS APS, priority 2021, published 2024)

Tests used:
Cx43 hemichannels [1] = molecular target: T1, Cx43 hemichannels (Homo sapiens, UniProt P17302); assay: Carboxyfluorescein dye uptake assay in HK2 cells; type: cell-based; conditions: TGFβ1 10 ng/mL alone, 48 h
T1 construct: host or cells: HK2 human kidney proximal tubule epithelial cell line
Experimental: (§1) In panel A, HK2 cells were cultured in low glucose (5 mM) with/without TGFβ1 (10 ng/ml)±danegaptide (50, 100 and 1000 nM) for 48 h and cell viability assessed. Results are presented as mean±SEM, n=3. […] Addition of danegaptide (50 or 100 nM) reduced dye uptake, returning fluorescence intensity to control levels. Intensity is expressed as percentage compared to low glucose control and is representative of 3 separate experiments. Data is presented as mean±SEM, n=3 with key significances indicated (**P<0.01, ***P<0.001); one-way ANOVA and Tukey's post-test).
HK2 and HPTEC cells were seeded onto fluorodishes (22 mm diameter) and cultured in low glucose DMEM/F12 (5 mmol/1) for 48 h. Following an overnight serum-starvation, cells were incubated with TGFβ1 (10 ng/ml)±danegaptide (100 nM) for 48 h. For subsequent steps, a balanced salt solution (BSS, pH7.0) was used, comprising of NaCl (137 mM), KCl (5.4 mM), MgSO4 (0.8 mM), Na2HPO4 (0.3 mM), KH2PO4 (0.4 mM), NaHCO3 (4.2 mM), HEPES (10 mM) and glucose (5 mM). To induce dye uptake, cells were exposed to Ca^2+-free BSS (zero CaCl2+EGTA (1 mM)) plus carboxyfluorescein (200 μM) for 10 min, followed by a 10 min period in Ca^2+-containing BSS (1.3 mM) plus carboxyfluorescein (200 μM). Dishes were subsequently washed with Ca^2+-containing BSS (12 mls). Images were acquired with a Cool Snap HQ CCD camera (Roper Scientific) and Metamorph software (Universal Imaging Corp., Marlow, Bucks, UK). ImageJ was used to quantify dye uptake, where a region of interest (ROI) was drawn around each cell (approx. 10-15 cells/dish) and mean pixel intensity measured. A background fluorescence value was subtracted from each ROI.

primary hPTECs = assay: Inflammation antibody array, cell lysates (Table 1); type: cell-based, human; conditions: hPTEC lysate; TGF-β1 10 ng/mL alone, 48 h
Excerpt: An inflammation antibody array was used to assess regulation of 31 candidate inflammatory proteins in cell lysates from hPTEC cells treated with TGFβ1±danegaptide. Results are representative of 3 separate experiments and presented as mean±SEM, n=3 with key significances indicated (*P<0.05, **P<0.01, ***P<0.001; one-way ANOVA and Tukey's post-test).
A proteome profiler array (Human Cytokine Array Kit from R&D Systems, Oxfordshire, UK) was used, to determine if danegaptide negates TGFβ1-induced changes in expression and secretion of key pro-inflammatory mediators. Primary hPTECs were cultured as described above and treated with TGFβ1 (10 ng/mL)±danegaptide (100 nM) for 48 h.

HK2 cells = assay: MTT assay (cell viability); type: cell-based, human; conditions: TGFβ1 10 ng/mL alone, 48 h
Experimental: HK2 cells were cultured in low glucose (5 mM) for 48 h, prior to being serum-starved overnight and subsequently treated with TGFβ1 (10 ng/mL)±danegaptide (50 nM-1 μM) for 48 h (FIG. 1A, n=3).
The 3-(4,5-Dimethylthiazol-2-yl)-2,5-diphenyltetrazolium bromide (MTT) assay was performed as known in the art to assess the cytotoxic effects of danegaptide on cell proliferation. HK2 cells were seeded in 96-well plates and cultured in low glucose DMEM/F12 (5 mM) for 48 h, prior to overnight serum-starvation, then subsequently stimulated for 48 h with TGFβ1 (10 ng/ml)±danegaptide (50-1000 nM). Colourmetric measurement of formazan production corresponds to the number of viable cells.

Cx43 hemichannels [2] = molecular target: T1, Cx43 hemichannels; assay: Carboxyfluorescein dye uptake assay in primary hPTECs; type: cell-based; conditions: TGFβ1 10 ng/mL alone, 48 h
Experimental: as §1
HK2 and HPTEC cells were seeded onto fluorodishes (22 mm diameter) and cultured in low glucose DMEM/F12 (5 mmol/1) for 48 h. Following an overnight serum-starvation, cells were incubated with TGFβ1 (10 ng/ml)±danegaptide (100 nM) for 48 h. For subsequent steps, a balanced salt solution (BSS, pH7.0) was used, comprising of NaCl (137 mM), KCl (5.4 mM), MgSO4 (0.8 mM), Na2HPO4 (0.3 mM), KH2PO4 (0.4 mM), NaHCO3 (4.2 mM), HEPES (10 mM) and glucose (5 mM). […] ImageJ was used to quantify dye uptake, where a region of interest (ROI) was drawn around each cell (approx. 10-15 cells/dish) and mean pixel intensity measured. A background fluorescence value was subtracted from each ROI.

T1 sequence (P17302 whole entry): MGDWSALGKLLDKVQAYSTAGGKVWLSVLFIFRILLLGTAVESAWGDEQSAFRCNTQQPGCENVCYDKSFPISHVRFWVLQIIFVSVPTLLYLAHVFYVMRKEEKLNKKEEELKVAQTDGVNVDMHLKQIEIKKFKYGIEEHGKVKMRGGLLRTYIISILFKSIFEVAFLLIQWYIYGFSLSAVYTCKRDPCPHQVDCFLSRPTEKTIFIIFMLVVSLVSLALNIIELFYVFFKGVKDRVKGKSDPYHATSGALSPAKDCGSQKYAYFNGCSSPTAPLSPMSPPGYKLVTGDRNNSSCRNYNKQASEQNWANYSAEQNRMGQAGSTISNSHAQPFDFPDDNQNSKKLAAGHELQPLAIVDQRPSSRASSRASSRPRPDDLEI

TGFβ1: Recombinant hTGFβ1 (Sigma); pro-fibrotic cytokine used to stimulate the cells [reference compound]
carboxyfluorescein dye uptake, of control (Cx43 hemichannels [1]): 354.9±32.6%
Angiogenin in lysate (% compared to control) (primary hPTECs): 237 ± 36^ %
Cystatin C in lysate (% compared to control) (primary hPTECs): 182 ± 17.5%
DPPIV in lysate (% compared to control) (primary hPTECs): 315 ± 6.8%
ENA 78 in lysate (% compared to control) (primary hPTECs): 207 ± 21.6%
Endoglin in lysate (% compared to control) (primary hPTECs): 145 ± 24.9%
FGF7 in lysate (% compared to control) (primary hPTECs): 139 ± 5.6%
Flt 3 Ligand in lysate (% compared to control) (primary hPTECs): 212 ± 13.3%
G-CSF in lysate (% compared to control) (primary hPTECs): 201 ± 24.6%
GM-CSF in lysate (% compared to control) (primary hPTECs): 221 ± 11.1%
HGF in lysate (% compared to control) (primary hPTECs): 153 ± 17.0%
ICAM 1 in lysate (% compared to control) (primary hPTECs): 190 ± 13.6%
IFNg in lysate (% compared to control) (primary hPTECs): 206 ± 15.4%
IGFBP2 in lysate (% compared to control) (primary hPTECs): 519 ± 99.4%
IGFBP3 in lysate (% compared to control) (primary hPTECs): 394 ± 94.5%
IL1A in lysate (% compared to control) (primary hPTECs): 127 ± 26.4%
IL3 in lysate (% compared to control) (primary hPTECs): 176 ± 3.4%
IL8 in lysate (% compared to control) (primary hPTECs): 236 ± 9.4%
IL12 p70 in lysate (% compared to control) (primary hPTECs): 177 ± 31.0%
IL13 in lysate (% compared to control) (primary hPTECs): 269 ± 3.9%
Kallikrein 3 in lysate (% compared to control) (primary hPTECs): 76 ± 12.0%
LIF in lysate (% compared to control) (primary hPTECs): 328 ± 70.4%
MCP-1 in lysate (% compared to control) (primary hPTECs): 134 ± 30.2%
MMP9 in lysate (% compared to control) (primary hPTECs): 24 ± 3.1%
PDGF-AA/BB in lysate (% compared to control) (primary hPTECs): 247 ± 53.4%
RAGE in lysate (% compared to control) (primary hPTECs): 109 ± 23.8%
RANTES in lysate (% compared to control) (primary hPTECs): 235 ± 13.5%
Serpin E1 in lysate (% compared to control) (primary hPTECs): 186 ± 40.2%
TFF3 in lysate (% compared to control) (primary hPTECs): 204 ± 25.8%
TNF-α in lysate (% compared to control) (primary hPTECs): 192 ± 14.7%
Thrombospondin-1 in lysate (% compared to control) (primary hPTECs): 128 ± 37.5%
VEGF in lysate (% compared to control) (primary hPTECs): 203 ± 25.9%
cell viability (MTT) as compared to control (HK2 cells): 101.9±11.7%
carboxyfluorescein dye uptake, of control (Cx43 hemichannels [2]): 310.8±38.6%
